Legend:
Ramos cells = experiment: Cytotoxicity in Ramos cells; type: cell-based; details: Homo sapiens; cytotoxicity in Ramos cells; read-out: Ramos Cell EC50
Description: (§1) Compounds in Table 5 below were tested for activity against F1F0-ATPase by measuring the ability of the compounds to inhibit ATP synthesis. In addition, the compounds were assessed for cytotoxicity in Ramos cells. Inhibition of F1F0-ATPase activity in synthesizing ATP and cytotoxicity in Ramos cells were measured according to the procedures described in K. M. Johnson et al. Chemistry & Biology 2005, 12, 485-496.
(§2) The activity of compound 3-chloro-N-(((3-chloro-5-fluorophenyl)amino)((5-(trifluoromethyl)-1H-pyrazol-3-yl)amino)methylene)benzamide towards F1F0-ATPase and Ramos cells was evaluated by performing multiple times the assay procedures described in Part I. In particular, activity against F1F0-ATPase was evaluated by measuring the ability of the compound to inhibit ATP synthesis in twelve independent experiments. Cytotoxicity towards Ramos cells was measured in thirteen independent experiments. Consistent with the procedure in Part I, the compound was dissolved in dimethylsulfoxide to form a solution that was applied to F1F0-ATPase or Ramos cells, and the assays were performed according to procedures described in K. M. Johnson et al. Chemistry & Biology 2005, 12, 485-496.
(§3) Similarly, EC50 values (for cytotoxicity towards Ramos cells) from multiple replications of the experimental procedure were averaged. The mean EC50 value for 3-chloro-N-(((3-chloro-5-fluorophenyl)amino)((5-(trifluoromethyl)-1H-pyrazol-3-yl)amino)methylene)benzamide for cytotoxicity towards Ramos cells was determined to be 59±6 nM.

Cytochrome P450 2D6 = Cytochrome P450 2D6 (Homo sapiens (Human), UniProt P10635); experiment: Inhibition of Cytochrome P450 2D6 in human liver microsomes; type: in vitro ADME; details: 30 minutes incubation with test compound, substrate dextromethorphan 10 μM, read-out: CYP2D6 IC50
Chain of Cytochrome P450 2D6 (P10635 whole entry): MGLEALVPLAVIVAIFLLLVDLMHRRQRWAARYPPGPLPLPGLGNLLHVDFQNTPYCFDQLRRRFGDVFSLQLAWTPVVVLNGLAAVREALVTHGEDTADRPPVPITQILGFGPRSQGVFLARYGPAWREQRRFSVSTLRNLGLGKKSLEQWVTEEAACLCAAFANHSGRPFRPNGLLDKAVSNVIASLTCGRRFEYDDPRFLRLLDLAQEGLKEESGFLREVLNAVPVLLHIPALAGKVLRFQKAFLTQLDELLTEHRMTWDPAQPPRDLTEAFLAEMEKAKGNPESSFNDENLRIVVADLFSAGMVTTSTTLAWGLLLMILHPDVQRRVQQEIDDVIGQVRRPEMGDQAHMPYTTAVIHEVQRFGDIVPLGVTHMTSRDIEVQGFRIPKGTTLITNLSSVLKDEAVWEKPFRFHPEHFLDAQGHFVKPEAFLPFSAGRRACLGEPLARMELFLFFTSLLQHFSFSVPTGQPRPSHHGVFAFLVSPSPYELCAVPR
Description: Master solutions were prepared containing human liver microsomes (Gibco, 0.2 mg/mL) and MgCl2 (5 mM) in potassium phosphate buffer (10 mM). To aliquots (169 μL) of the microsome solution was added test compound in acetonitrile (1 μL) and DMSO (1 μL) to provide final test compound concentrations of 0, 0.005, 0.05, 0.25, 1, 5, 10, and 25 μM.
NADPH (10 mM) in ultra-pure water (20 μL) was added, and this mixture was incubated at 37° C. for 30 minutes. The enzyme reaction then was initiated by the addition of enzyme substrate (dextromethorphan) dissolved in 1 μL of acetonitrile and 9 μL of ultra-pure water. The final substrate concentration was 10 μM.
After 20 minutes, the incubation mixture was diluted with 3 volumes of cold methanol containing imipramine (200 nM), labetalol (200 nM), and ketoprofen (2 μM) as internal standards. Samples were centrifuged at 16,000 g for 10 minutes, then an aliquot of the supernatant (200 μL) was removed and analyzed by LC/MS/MS.
LC/MS/MS analyses were performed in duplicate using a Shimadzu HPLC and an API 4000 mass spectrometer. Liquid chromatography employed a Phenomenex C18, 5 μm, 50×2 mm column fitted with a guard column. Solvent A was acetonitrile containing 0.1% v/v formic acid. Solvent B was water containing 0.1% v/v formic acid. […]
The formation of metabolites was evaluated by peak area, and data were analyzed using Prism 5.0 software (GraphPad). […]

[1] = Cytotoxicity in Ramos cells; type: cell-based; details: human, Ramos cells; mean of thirteen independent experiments; compound dissolved in dimethylsulfoxide; read-out: mean EC50 for cytotoxicity towards Ramos cells
Description: as §1, §2, §3

Row | Structure (SMILES) | EC50 (Ramos cells) | IC50 (Cytochrome P450 2D6) | EC50 [1]
1 | O=C(/N=C(/Nc1cc(F)cc(Cl)c1)Nc1cc(C(F)(F)F)[nH]n1)c1ccc(Cl)cc1 [Compound 4] | 0.12 µM | – | –
2 | O=C(/N=C(/Nc1cc(F)cc(Cl)c1)Nc1cc(C(F)F)[nH]n1)c1ccc(Cl)cc1 [Compound 3] | 1.84 µM | – | –
3 | O=C(/N=C(/Nc1cc(F)cc(Cl)c1)Nc1cc(C(F)(F)F)[nH]n1)c1cccc(Cl)c1 [Compound 1, 3-chloro-N-(((3-chloro-5-fluorophenyl)amino)((5-(trifluoromethyl)-1H-pyrazol-3-yl)amino)methylene)benzamide] | 0.05 µM | 3.2 µM | 0.059 ± 0.006 µM
4 | O=C(/N=C(/Nc1cccc(Cl)c1)Nc1cc(C(F)(F)F)[nH]n1)c1cccc(Cl)c1 [Compound 2, 3-chloro-N-(((3-chlorophenyl)amino)((5-(trifluoromethyl)-1H-pyrazol-3-yl)amino)methylene)benzamide, reference compound] | 0.1 µM | 1.1 µM | –
